Active and inactive are the calls of the source. The rule behind the calls is not given here.
Tests used:
[1] = target: 5-hydroxytryptamine receptor 2A (Mus musculus, UniProt P35363); experiment: Agonist activity at mouse 5-HT2A receptor expressed in Flp-In T-REx 293 cells assessed as induction of Gq-mediated calcium flux incubated for 1 hr by Flou4-AM dye based FLIPR assay; type: functional, cell-based
[2] = target: 5-hydroxytryptamine receptor 2A (Homo sapiens) (UniProt P28223); experiment: Agonist activity at human 5-HT2A receptor expressed in Flp-In T-REx 293 cells assessed as induction of Gq-mediated calcium flux incubated for 1 hr by Flou4-AM dye based FLIPR assay relative to serotonin; type: functional, cell-based
[3] = target: 5-hydroxytryptamine receptor 2A (Mus musculus) (UniProt P35363); experiment: Agonist activity at mouse 5-HT2A receptor expressed in Flp-In T-REx 293 cells assessed as induction of Gq-mediated calcium flux incubated for 1 hr by Flou4-AM dye based FLIPR assay relative to serotonin; type: functional, cell-based
[4] = system: Mus musculus; experiment: Induction of head-twitch response in C57BL/6J mouse at 0.03 to 3 mg/kg, ip measured for 20 mins; type: functional, organism-based
[5] = system: Mus musculus; experiment: Induction of head-twitch response in ip dosed C57BL/6J mouse measured for 20 mins; type: functional

5-hydroxytryptamine receptor 2A, sequence (P35363 whole entry): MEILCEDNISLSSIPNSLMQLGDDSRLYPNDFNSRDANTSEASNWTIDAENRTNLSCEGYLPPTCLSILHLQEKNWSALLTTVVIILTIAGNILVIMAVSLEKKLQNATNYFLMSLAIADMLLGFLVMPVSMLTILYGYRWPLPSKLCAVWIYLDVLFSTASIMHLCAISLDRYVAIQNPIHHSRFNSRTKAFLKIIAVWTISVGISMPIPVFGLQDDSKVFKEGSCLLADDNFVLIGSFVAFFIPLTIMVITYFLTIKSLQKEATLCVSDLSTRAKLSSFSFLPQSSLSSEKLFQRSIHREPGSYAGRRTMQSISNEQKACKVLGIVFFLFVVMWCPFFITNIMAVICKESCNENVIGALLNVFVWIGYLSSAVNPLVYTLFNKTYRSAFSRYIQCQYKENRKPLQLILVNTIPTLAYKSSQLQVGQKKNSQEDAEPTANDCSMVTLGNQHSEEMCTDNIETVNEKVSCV
5-hydroxytryptamine receptor 2A (Mus musculus), sequence (P35363 whole entry): as above
5-hydroxytryptamine receptor 2A (Homo sapiens), sequence (P28223 whole entry): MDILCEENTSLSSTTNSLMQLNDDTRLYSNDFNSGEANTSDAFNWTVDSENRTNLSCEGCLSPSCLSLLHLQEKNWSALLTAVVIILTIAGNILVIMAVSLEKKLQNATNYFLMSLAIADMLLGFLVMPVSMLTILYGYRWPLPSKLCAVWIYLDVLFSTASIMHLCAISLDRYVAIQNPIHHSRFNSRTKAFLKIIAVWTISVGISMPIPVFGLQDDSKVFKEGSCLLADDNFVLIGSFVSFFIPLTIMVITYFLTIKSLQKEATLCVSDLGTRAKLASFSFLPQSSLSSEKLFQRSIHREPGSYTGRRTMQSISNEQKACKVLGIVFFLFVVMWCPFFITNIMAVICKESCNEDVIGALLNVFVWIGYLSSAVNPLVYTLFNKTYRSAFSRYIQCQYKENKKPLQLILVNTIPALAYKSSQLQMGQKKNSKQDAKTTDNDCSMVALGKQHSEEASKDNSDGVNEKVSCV

SMILES | EC50 [1] [nM] | Emax [2] [%] | Emax [3] [%] | Activity [4] | Activity [5] | ED50 [5] [mg/kg]
CNCCc1c[nH]c2cccc(O)c12 | 19 | 93 | 99 | – | – | –
CNCCc1c[nH]c2cccc(OP(=O)(O)O)c12 | – | – | – | inactive | – | –
CN(C)CCc1c[nH]c2cccc(O)c12 [PSILOCIN] | 9.9 | 73 | 72 | – | – | –
CN(C)CCc1c[nH]c2cccc(OP(=O)(O)O)c12 [PSILOCYBIN] | – | – | – | – | Dose-dependent effect | 0.4

— ChEMBL document CHEMBL4602692, “Synthesis and Biological Evaluation of Tryptamines Found in Hallucinogenic Mushrooms: Norbaeocystin, Baeocystin, Norpsilocin, and Aeruginascin” (J Nat Prod, 2020)
